# Measured values reported in patent publication US20090232796A1, “METHOD OF TREATING CANCER BY ADMINISTERING AN IMMUNOMODULATORY COMPOUND IN COMBINATION WITH A CD40 ANTIBODY OR CD40 LIGAND” (priority 2008, published 2009).
# B1: CD40L: CD40 ligand, used in the form of CD40L transfected fibroblasts (protein, UniProt P29965 113-261, looked up)
# CD40 ligand, soluble form: MQKGDQNPQIAAHVISEASSKTTSVLQWAEKGYYTMSNNLVTLENGKQLTVKRQGLYYIYAQVTFCSNREASSQAPFIASLCLKSPGRFERILLRAANTHSSAKPCGQQSIHLGGVFELQPGASVFVNVTDPSQVSHGTGFTSFGLLKL
# modifications: expressed on transfected fibroblasts
# Columns and labels:
# [1] = system: B-CLL cells; experiment: Response of B-CLL cells to CD40L-transfected fibroblasts after compound pre-treatment; type: cell-based, human; settings: for response of B-CLL cells to CD40L treatment (percentage of viable cells per ml): relapsed patient at baseline, pre-treated 48 hours, then coculture with CD40L-transfected or control fibroblasts 48 hours (FIG. 5)
# Text: (§1) L929 cells are derived from an immortalized mouse fibroblast cell line, and are routinely used in in-vitro assays. The L929 cells used herein were obtained from the American Type Culture Collection (ATCC). Raji cells were also obtained from ATCC. Namalwa cells were obtained from the German Resource Centre for Biological Materials DSMZ. B-CLL cells were obtained from the peripheral blood of patients enrolled in a clinical trial.
# (§2) Namalwa, Raji, CD40L-transfected fibroblasts and L929 fibroblasts were cultured in RPMI medium (Gibco-Invitrogen) supplemented with 10% FBS. B-CLL cells were cultured in Iscove's medium (Gibco-Invitrogen) plus 15% FBS. Namalwa, Raji and B-CLL cells were cultured with compounds from 2 to 4 days. Fibroblasts were maintained in culture in monolayers. The day before the co-culture, the fibroblasts were treated with mitomycin C to stop proliferation and were then replated. Suspension cells were then added to the fibroblasts and the culture was incubated for 2 to 4 days.
# (§3) Flow cytometry was then used to determine cell numbers and the percentage of apoptotic cells using the FACSArray system (BD Biosciences). The cells were stained with 7-Amino-Actinomycin D (7-AAD) (BD Pharmingen) for 10 minutes at room temperature prior to flow cytometry analysis in order to identify non-viable cells.
# Pre-treatment with immunomodulatory compounds also augmented the sensitivity of Namalwa cells and CLL cells to CD40 ligation by CD40L. B-CLL cells taken from a relapsed patient at baseline were pre-treated with either 1,3-dioxo-2-(2,6-dioxopiperidin-3-yl)-4-aminoisoindoline or 1-oxo-2-(2,6-dioxopiperidin-3-yl)-4-aminoisoindoline for 48 hours. The cells were then cocultured with either CD40L-transfected fibroblasts or control fibroblasts for another 48 hours. The percentage of viable cells per ml was then measured (FIG. 5). Cells from another patient were pretreated with 1-oxo-2-(2,6-dioxopiperidin-3-yl)-4-aminoisoindoline for 24 hours and then cocultured with either CD40L-transfected fibroblasts or control fibroblasts for an additional 48 hours.
# [2] = system: Namalwa cells; experiment: Proliferation of Namalwa cells alone, with control fibroblasts or with CD40L-expressing fibroblasts; type: cell-based; settings: for sensitivity of Namalwa cells to CD40 ligation by CD40L: pre-treatment with compound, CD40L transfected fibroblasts (FIG. 4)
# Text: as §1, §2, §3
# [3] = system: CD19^+CD5^+ cells; experiment: CD40 on CD19+CD5+ cells of patients undergoing therapy, flow cytometry; type: in vivo, human
# [4] = system: Raji cells; experiment: CD40 expression on Raji cells by flow cytometry; type: cell-based; settings: 10 μM, 48 hours of incubation, vs DMSO control (FIG. 1)
# [5] = system: B-CLL cells; experiment: CD40 expression in cultured B-CLL cells (anti-CD40 APC antibody mean intensity); type: cell-based, human; settings: for mean intensity of anti-CD40 APC antibody: CD5+ CD19+ CLL blasts from a newly diagnosed patient, 4 days in culture (FIG. 2)
# [6] = system: normal primary B cells; experiment: Effect on normal primary B cells (p21 expression, viable cells); type: cell-based; settings: for viable normal B cells: normal primary B cells in culture; for level of p21 expression: normal primary B cells, after 24 hours and 72 hours of culture
# Description: as §3
# Total RNA was isolated from Namalwa and B-CLL cells using RNAeasy (Qiagen). Gene expression analysis was performed using Affymetrix human U133A gene chips. Double-stranded cDNA was synthesized using […] of total RNA. Biotin-labeled cRNA was synthesized using a MessageAmp aRNA kit (Ambion). […] of cRNA was fragmented and hybridized to each array. The above procedures were performed twice for each RNA sample to obtain replicate biotin-labeled probes.
# Cells cultured in the presence or absence of 1,3-dioxo-2-(2,6-dioxopiperidin-3-yl)-4-aminoisoindoline or 1-oxo-2-(2,6-dioxopiperidin-3-yl)-4-aminoisoindoline were characterized using flow cytometry and gene array analysis.
Molecule,"response of B-CLL cells to CD40L treatment (total cells/ml) ([1]; newly diagnosed patient, pre-treated 0.1, 1.0 or 10 μM 24 hours, then CD40L-transfected or control fibroblasts 48 h (FIG. 6))",response of B-CLL cells to CD40L treatment (percentage of viable cells per ml) [1],sensitivity of Namalwa cells to CD40 ligation by CD40L [2],"CD40+ cells among CD19+CD5+ cells ([3]; patient of FIG. 7, after 8 days of therapy, baseline 6.4%) [%]","CD40+ cells among CD19+CD5+ cells ([3]; patient of FIG. 8, after 8 days of therapy, baseline 12.5%) [%]","CD40+ cells among CD19+CD5+ cells ([3]; patient of FIG. 9, after 28 days of therapy, baseline 2.4%) [%]","CD40 in B-CLL cells of patients ([3]; patients undergoing therapy, summary statement)",percentage of CD40+ cells [4],mean intensity of anti-CD40 APC antibody [5],viable normal B cells [6],level of p21 expression [6],"proliferation of Namalwa cells ([2]; 0.01-10 μM, alone or in the presence of control fibroblasts (FIG. 4))","mean intensity of anti-CD40 APC antibody in CD5+CD19+ CLL blasts ([5]; newly diagnosed patient, 0.1, 1.0 or 10 μM, 24 hours, vs DMSO (FIG. 3))",cell growth / cell apoptosis ([1]; B-CLL cells treated with CD40L transfected fibroblasts),cell growth / cell apoptosis ([2]; Namalwa cells treated with CD40L transfected fibroblasts)
"Nc1cccc2c1CN(C1CCC(=O)NC1=O)C2=O (stereo not drawn) [1-oxo-2-(2,6-dioxopiperidin-3-yl)-4-aminoisoindoline]",increases the response of B-CLL cells to CD40L treatment,increases the response of B-CLL cells to CD40L treatment,increased the sensitivity of Namalwa cells to CD40 ligation by CD40L,57.4,36.7,13.9,upregulation of CD40 in B-CLL cells,increase the number of CD40^+ Raji cells,approximately doubled,dose-dependent increase in viable normal B cells,did not increase the level of p21 expression,,,,
"Nc1cccc2c1C(=O)N(C1CCC(=O)NC1=O)C2=O (stereo not drawn) [1,3-dioxo-2-(2,6-dioxopiperidin-3-yl)-4-aminoisoindoline]",,increases the response of B-CLL cells to CD40L treatment,increased the sensitivity of Namalwa cells to CD40 ligation by CD40L,,,,,increase the number of CD40^+ Raji cells,approximately doubled,dose-dependent increase in viable normal B cells,did not increase the level of p21 expression,inhibiting cell proliferation in a dose dependent manner,augments the expression of CD40 in a dose responsive manner,,
B1,,,,,,,,,,,,,,inhibit cell growth and/or augment cell apoptosis,inhibit cell growth and/or augment cell apoptosis
